# According to patent US12714711B2, “Salts of neuroceuticals and uses thereof” (priority 2020, dated 2026):
# How the values were obtained:
# [1] = test system: MK-801 treated mice; experiment: Open field test, MK-801 induced hyper-locomotion; details: for Open-field test, anti-hyperactivity effect (formula [formula] not readable) / Open-field test effect (formula [formula] not readable): acute oral; for Open-field test, anti-hyperactivity effect (formula [formula] not readable): mice; for locomotor activity in MK-801 treated mice: MK-801 0.2 mg/kg i.p.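 On all read-outs here: adult male C57BL/6J mice, locomotion counted as total photobeam breaks over 60 minutes in an open field photobeam activity system.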
# Description: All mice were tested with open field task.
# In this study, the mice were placed in a Plexiglas cage (37.5 cm×21.5 cm×18 cm) under 50-65 lux light intensity. Their spontaneous locomotor activities were measured for 60 minutes using the Photobeam Activity System (PAS)-open field (San Diego Instruments, San Diego, Calif., USA). The total number of photo beam breaks of each mouse was measured as an index of locomotor activity.
# The schizophrenia-like behavior, MK801-induced hyperactivity, were tested by open field task.
# All mice were tested in an open field task.
# The schizophrenia-like behavior, NMDA-hypofunction-induced hyperactivity, were tested by open field task.
# The amount of paliperidone administered to Groups 3 and 4 was equal. The schizophrenia-like behavior, MK801-induced hyperactivity, were tested by open field task.
# The amount of paliperidone administered to Groups 3 and 4 was equal. The schizophrenia-like behavior, NMDA-hypofunction-induced hyperactivity, were tested by open field task.
# [2] = Water solubility at 25° C.; details: for solubility: water, 25 °C; for water solubility: 25° C.
# [3] = in vivo; details: rat, po
# Description: All animals used in this study were adult rats (at least 2.5 months of age).
# Male Sprague-Dawley rats having a bodyweight between 250-300 g were randomly assigned to two groups. […] The chemicals were suspended in sesame oil and administrated by single oral gavage at 2 ml/kg. All rats were fasted overnight with free access to water before oral administration of the testing compositions. On the day of dosing, the blood samples were collected at 0 min (prior to dosing), and 0.25, 0.5, 1, 2, 4, 6, 8, and 24 hr post-dosing.
# Blood samples were collected from rat jugular veins and transferred into tubes coated with sodium heparin. To obtain plasma, the blood samples were centrifuged at 2,500×g for 15 min at 4° C. and the supernatants were collected and kept frozen in a freezer at −80° C., until they were analyzed.
# The plasma concentration of donepezil was determined by LC/MS. The chromatographic separation was carried out on a 5 μm EVO C8 100 Å LC column (100×4.6 mm, Kinetex®). The mobile phase was 0.1% formic acid in water and acetonitrile:methanol=8:2 set as gradient. Flow rate used was 0.3 mL/min. Column temperature was maintained at 40° C. and the injection volume was 30 μL.
# The pharmacokinetic parameters were calculated using non-compartmental analysis (NCA) with WinNonlin to assess the systemic exposure of donepezil in rats.
# [4] = mouse, in vivo, ip, 10 mg/kg
# Description: The testing compounds were administered to mice either through intraperitoneal (i.p.) injection or oral gavage before analyzing blood glucose levels.
# For the acute study, two cohorts of mice were used.
# For repeated-dose study, mice were randomly assigned into five groups as listed below. • Group 1: Vehicle control • Group 2: Clz (3 mg/kg) • Group 3: Clz:NA 1:1 salt (4.13 mg/kg) • Group 4: Clz (10 mg/kg) • Group 5: Clz:NA 1:1 salt (13.77 mg/kg)
# The night before blood glucose levels were measured, the mice were fasted. Blood glucose levels were measured with a portable glucose meter (Contour® Plus, Bayer AG, Leverkusen, Germany) After waiting for 60 min, the treatments indicated above were administered. FIG. 75 illustrates the experimental design of this study.
# Two cohorts of mice were used in this study. In cohort 1, mice were randomly assigned into the five groups listed below: • Group 1: Vehicle control • Group 2: NA (3.94 mg/kg) • Group 3: Olz (10 mg/kg) • Group 4: Olz (10 mg/kg)+NA (3.94 mg/kg) • Group 5: Olz:NA 1:1 salt (13.94 mg/kg)
# Dosing occurred 60 min prior to measuring blood glucose levels.
# In cohort 2, mice were randomly assigned into the five groups listed below: • Group 1: Vehicle control • Group 2: Olz (5 mg/kg) • Group 3: Olz:NA 1:1 salt (6.97 mg/kg) • Group 4: Olz (10 mg/kg) • Group 5: Olz:NA 1:1 salt (13.94 mg/kg)
# The night before the glucose tolerance test, the mice fasted. Blood glucose levels were measured in whole blood that was collected from the mouse's tail vein. Glucose levels were measured with a portable glucose meter (Contour® Plus, Bayer AG, Leverkusen, Germany), with the measurement occurring 60 min after the mice were dosed with the treatments indicated above Immediately following the glucose measurement, all mice were subjected to a glucose tolerance test, which involved an intraperitoneal challenge injection of 1 g/kg of glucose, followed by measuring blood glucose levels at 0, 30, 60 and 120 minutes.
# [5] = test system: mice; experiment: von Frey test, paw withdrawal threshold; assay type: in vivo, C57BL/6J male mice; details: for paw withdrawal threshold compared to vehicle control group / AUC values of von Frey pain threshold compared to vehicle control group / AUC of von Frey pain threshold relative to gabapentin group: mice, single oral dose; for paw withdrawal threshold compared to vehicle control group: gabapentin 20 mg/kg equivalent (salts 192, 106.02, 77.34 mg/kg), 15-180 min; for paw withdrawal threshold compared to vehicle control group / AUC values of von Frey pain threshold compared to vehicle control group: enriched TA 200 mg/kg; for AUC values of von Frey pain threshold compared to vehicle control group: gabapentin 20 mg/kg equivalent; for Pain threshold to time AUC after 120 min: von Frey test, acute oral, 20 mg/kg; for AUC of von Frey pain threshold relative to gabapentin group: same amount of gabapentin (20 mg/kg)
# Description: The objective of this experiment was to assess the analgesic effects of gabapentin:enriched tannic acid salts in mice. The testing compounds were administrated to mice by oral gavage before von Frey test (a typical assay for pain sensation).
# Mice used in this study were randomly assigned into six groups: • Group 1: Vehicle control • Group 2: Enriched TA (200 mg/kg) • Group 3: GBP (20 mg/kg) • Group 4: GBP:enriched TA 1:1 salt (192 mg/kg) • Group 5: GBP:enriched TA 2:1 salt (106.02 mg/kg) • Group 6: GBP:enriched TA 3:1 salt (77.34 mg/kg)
# Each mouse in Groups 1-6 received a single, oral dose of 65% PEG400 in ddH2O, enriched tannic acid at 200 mg/kg, gabapentin at 20 mg/kg, gabapentin:enriched tannic acid 1:1 salt (192 mg/kg), gabapentin:enriched tannic acid 2:1 salt (106.02 mg/kg) and gabapentin:enriched tannic acid 3:1 salt (77.34 mg/kg). The amount of gabapentin administered to the mice in Groups 3 to 6 was the same.
# Mice were habituated in individual transparent acrylic box on a wire-mesh floor for 30 min before testing. An electronic von Frey apparatus (Bioseb-EVF4S) was used to measure the paw withdrawal thresholds (g) of each mouse before drug administration (baseline) and at 15, 30, 60, 120 and 180 mins after drug administration.
# [6] = Carr Index (USP 1174), flowability; assay type: physicochemical
# [7] = MK801 model, dosage of clozapine 1 mg/kg
# [8] = MK801 model, dosage of clozapine 2 mg/kg
# [9] = paliperidone 0.06 mg/kg (benzoic acid salt study)
# [10] = paliperidone 0.06 mg/kg (nicotinic acid salt study)
# [11] = oral paliperidone 0.06 mg/kg or benzoic acid salt 0.076 mg/kg
# [12] = oral paliperidone 0.06 mg/kg or nicotinic acid 1:2 salt 0.094 mg/kg
# [13] = risperidone 10 mg/kg as printed in Table 29
# [14] = oral risperidone 0.06 mg/kg or nicotinic acid salt 0.078 mg/kg
compound,measurement,setting,value
"CN1CCN(C2=Nc3cc(Cl)ccc3Nc3ccccc32)CC1 [clozapine, reference compound]",Recovery rate (%),"[1]; MK801-treated mice, dosage of clozapine 1 mg/kg (benzoic acid salt study)",65.1%
same,Recovery rate (%),[1]; [7],57%
same,Recovery rate (%),[1]; [8],79%
same,"Open-field test, anti-hyperactivity effect (formula [formula] not readable)",[1]; clozapine 1 mg/kg,18.77%
same,solubility,[2],0.18 mg/mL
same,AUC,"[3]; male, Sprague-Dawley, 60 mg/kg",1320 ng·h/mL
same,AUC Increased (%),"[3]; male, Sprague-Dawley, 60 mg/kg",100%
same,Tmax,"[3]; male, Sprague-Dawley, 60 mg/kg",1 h
same,half-life,"[3]; male, Sprague-Dawley, 60 mg/kg",5.6 ± 1.7 h
CN1CCN(C2=Nc3cc(Cl)ccc3Nc3ccccc32)CC1.O=C(O)c1cccnc1 [clozapine:nicotinic acid 1:1 salt],Recovery rate (%),[1]; [7],86%
same,Recovery rate (%),[1]; [8],100%
same,T1/2,[3],3.2 ± 1.4 h
same,Tmax,[3],0.8 h
same,AUC Increased (%),[3]; 60 mg/kg,161.8%
same,reduction of clozapine-induced hyperglycemia,[4],46.8%
"NCC1(CC(=O)O)CCCCC1 [gabapentin, reference compound]",paw withdrawal threshold compared to vehicle control group,[5],no difference from control group at any time point examined
same,AUC values of von Frey pain threshold compared to vehicle control group,[5],little to no effect
same,Pain threshold to time AUC after 120 min,[5],1.28
"Cc1cc2c(s1)Nc1ccccc1N=C2N1CCN(C)CC1 [olanzapine, reference compound]",Recovery rate (%),"[1]; MK801-treated mice, dosage of olanzapine 0.1 mg/kg",36.8%
same,Open-field test effect (formula [formula] not readable),[1]; olanzapine 0.5 mg/kg,85.8%
same,"Open-field test, anti-hyperactivity effect (formula [formula] not readable)",[1]; olanzapine 0.5 mg/kg,30.53%
"Cc1nc2n(c(=O)c1CCN1CCC(c3noc4cc(F)ccc34)CC1)CCCC2O (stereo not shown) [paliperidone, reference compound]",Carr Index,[6],29%
same,Open-field test effect (formula [formula] not readable),[1]; [9],50.3%
same,Open-field test effect (formula [formula] not readable),[1]; [10],50.3%
same,locomotor activity in MK-801 treated mice,[1]; [11],alleviates MK-801 induced hyperactivity
same,locomotor activity in MK-801 treated mice,[1]; [12],alleviates MK-801 induced hyperactivity
same,solubility,[2],0.29 mg/mL
"Cc1nc2n(c(=O)c1CCN1CCC(c3noc4cc(F)ccc34)CC1)CCCC2O.O=C(O)c1ccccc1 (stereo not shown) [paliperidone:benzoic acid 1:1 salt, Paliperidone:Benzoic Acid 1:1 Salt]",Carr Index,[6],13%
same,Open-field test effect (formula [formula] not readable),[1]; [9],85.0%
same,locomotor activity in MK-801 treated mice,[1]; [11],"significant decrease in locomotion activity, compared with paliperidone group"
same,water solubility,[2],10.4 mg/mL
Cc1nc2n(c(=O)c1CCN1CCC(c3noc4cc(F)ccc34)CC1)CCCC2O.O=C(O)c1cccnc1.O=C(O)c1cccnc1 (stereo not shown) [paliperidone:nicotinic acid 1:2 salt],Carr Index,[6],29%
same,Open-field test effect (formula [formula] not readable),[1]; [10],89.7%
same,locomotor activity in MK-801 treated mice,[1]; [12],"significant decreases in locomotion activity, compared with paliperidone group"
same,water solubility,[2],137.3 mg/mL
"OCCOCCN1CCN(C2=Nc3ccccc3Sc3ccccc32)CC1 [quetiapine, reference compound]",Open-field test effect (formula [formula] not readable),[1]; quetiapine 10 mg/kg,8.7%
same,locomotor activity in MK-801 treated mice,[1]; oral quetiapine 10 mg/kg or nicotinic acid salt […],alleviates MK-801 induced hyperactivity
"O=C(O)/C=C/C(=O)O.OCCOCCN1CCN(C2=Nc3ccccc3Sc3ccccc32)CC1 [quetiapine:fumaric acid 1:1 salt, reference compound]",Carr Index,[6],33%
"Cc1nc2n(c(=O)c1CCN1CCC(c3noc4cc(F)ccc34)CC1)CCCC2 [risperidone, reference compound]",Open-field test effect (formula [formula] not readable),[1]; [13],48.7%
same,locomotor activity in MK-801 treated mice,[1]; [14],alleviates MK-801 induced hyperactivity
same,solubility,[2],< 0.005 mg/mL
"Cc1nc2n(c(=O)c1CCN1CCC(c3noc4cc(F)ccc34)CC1)CCCC2.O=C(O)c1cccnc1 [risperidone:nicotinic acid 1:1 salt, resperidone:nicotinic acid 1:1 salt]",Open-field test effect (formula [formula] not readable),[1]; [13],80.1%
same,locomotor activity in MK-801 treated mice,[1]; [14],higher potency to MK-801-induced hyperactivity
same,water solubility,[2],2170.77 mg/mL
gabapentin:enriched tannic acid 1:1 salt,paw withdrawal threshold compared to vehicle control group,[5],significantly higher at 60 and 120 min
same,AUC values of von Frey pain threshold compared to vehicle control group,[5],significantly higher
same,AUC of von Frey pain threshold relative to gabapentin group,[5],about twice as high as in gabapentin group
gabapentin:enriched tannic acid 2:1 salt,paw withdrawal threshold compared to vehicle control group,[5],significantly higher at 30 min
gabapentin:enriched tannic acid 3:1 salt,paw withdrawal threshold compared to vehicle control group,[5],"significantly higher at 30, 60 and 120 min after administration"
same,AUC values of von Frey pain threshold compared to vehicle control group,[5],significantly higher
same,AUC of von Frey pain threshold relative to gabapentin group,[5],about twice as high as in gabapentin group
same,Pain threshold to time AUC after 120 min,[5],2.80
olanzapine:enriched tannic acid 2:1 salt,"Open-field test, anti-hyperactivity effect (formula [formula] not readable)",[1]; olanzapine 0.5 mg/kg,112.82%
olanzapine:pantothenic acid 5:1 salt,Open-field test effect (formula [formula] not readable),[1]; olanzapine 0.5 mg/kg,101.0%
same,locomotor activity in MK-801 treated mice,[1]; oral olanzapine 0.5 mg/kg or 5:1 salt 0.547 mg/kg,higher potency to MK-801-induced hyperactivity
